According to US20120065196A1, “AMIDE COMPOUNDS” (priority 2006, published 2012):

Target: T1, human DGAT1 (Homo sapiens, UniProt O75907)
T1 construct: (N); made in house; host or cells: Sf9 insect cells infected with recombinant baculovirus BAC-DGAT1; microsome fraction
T1 sequence (O75907 1-488): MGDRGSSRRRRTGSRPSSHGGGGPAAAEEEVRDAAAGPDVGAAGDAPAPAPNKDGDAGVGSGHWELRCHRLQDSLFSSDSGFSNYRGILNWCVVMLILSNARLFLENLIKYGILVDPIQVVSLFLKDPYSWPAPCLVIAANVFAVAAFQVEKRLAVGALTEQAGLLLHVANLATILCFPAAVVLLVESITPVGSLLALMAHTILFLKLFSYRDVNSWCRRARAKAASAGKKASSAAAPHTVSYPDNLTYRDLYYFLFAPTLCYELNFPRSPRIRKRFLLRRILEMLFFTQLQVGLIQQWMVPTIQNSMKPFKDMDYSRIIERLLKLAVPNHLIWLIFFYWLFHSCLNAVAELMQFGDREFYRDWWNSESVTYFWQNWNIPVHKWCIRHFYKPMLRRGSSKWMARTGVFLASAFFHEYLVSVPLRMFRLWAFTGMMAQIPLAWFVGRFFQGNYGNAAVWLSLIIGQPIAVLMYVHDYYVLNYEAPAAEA
Test: Determination of DGAT inhibitory activity (triglyceride synthesis with DGAT1 high expression Sf9 microsome)
Type: biochemical
Conditions: 25 μM dioleoylglycerol, 25 μM [14C]-Oleoyl-CoA, 32° C., 20 min, read-out: hDGAT1 IC50
Description: Human DGAT1 gene was cloned by PCR using human adipocyte cDNA (Clontech, QUICK-Clone cDNA, human fat cell, cat #637220) as a template and, based on the DGAT1 gene information reported by Case, S. et al. (Proc. Natl. Acad. Sci. U.S.A. 95 (22), 13018-13023 (1998)), a nucleotide sequence (245-1711 of Genbank Accession No. NM_012079) encoding DGAT1 was amplified with the following PCR primer. The primer nucleotide sequence is shown below.
The PCR reaction was conducted using a KOD-plus kit (TOYOBO). The obtained PCR product was electrophoresed on agarose gel (1%), the DNA fragment amplified by PCR was recovered from the gel, and then digested with restriction enzymes EcoRI and SpeI. The DNA treated with the restriction enzymes was electrophoresed on agarose gel (1%), and the obtained DNA fragment was recovered and ligated with plasmid pFASTBAC1 (Invitrogen) digested with restriction enzymes EcoRI and SpeI to give expression plasmid pFB-DGAT1. The nucleotide sequence of the inserted fragment was confirmed and found to be identical with the nucleotide sequence of DGAT1 (245-1711 of Genbank Accession No. NM_012079). Furthermore, using BAC-TO-BAC Baculovirus Expression System (Invitrogen), recombinant baculovirus BAC-DGAT1 was prepared.
SF9 cells were sown at 1×10^6 cells/ml on Sf-900II SFM medium (1 L, Invitrogen) containing 10% fetal calf serum (Trace), 50 mg/L gentamicin (Invitrogen) and 0.1% Pluronic F-68 (Invitrogen), and shaking culture was performed using a 2 L volume Erlenmeyer flask at 27° C., 100 rpm. After culturing for 24 hrs, recombinant baculovirus BAC-DGAT1 (6.7 mL) was added, and the mixture was further cultured for 3 days. The culture medium was centrifuged at 2,000 rpm for 5 min to give virus-infected cells. The infected cells were washed with a phosphate buffered saline (Invitrogen), centrifuged under the same conditions, and the cells were preserved at −80° C. The cryopreserved cells were thawed in ice, suspended in buffer A (50 mM Tris buffer (30 mL, pH 7.4) containing 20% glycerol, 0.15 M NaCl) supplemented with Complete Protease Inhibitor (Boehringer), and ruptured 3 times with a Polytron homogenizer (Kinematica) at 20,000 rpm for 30 sec. The Sf9 microsome fractions were obtained by a conventional method and cryopreserved at −80° C. as a DGAT1 high expression Sf9 microsome.
As a DGAT1 reaction buffer, a solution having a composition of 100 mM Tris-HCl (pH 7.5), 250 mM sucrose, 150 mM MgCl2, 0.01% bovine serum albumin (BSA) was used. Using this buffer, a given concentration of the test compound and a composition (100 μl) of 25 μM dioleoylglycerol, 25 μM [^14C]-Oleoyl-CoA, 5 μg protein/ml DGAT1 high expression Sf9 microsome, and 1% acetone were subjected to a triglyceride synthesis reaction at 32° C. for 20 min. A mixture of 300 μL of chloroform:methanol (=1:2) was added to the reaction mixture to quench the reaction. The reaction mixture was sufficiently mixed and distilled water (200 μL) was added to partition the mixture between a chloroform layer (lower layer) and an aqueous layer (upper layer). The chloroform layer (50 μL) was spotted on a thin layer chromatography silica gel plate (TLC plate, Merck) and developed with a solvent (n-hexane:diethyl ether:ethyl acetate:acetic acid=255:30:15:0.6). The developed TLC plate was dried, contacted with a BAS imaging plate (manufactured by FUJIFILM) and measured with BAS2500 (manufactured by FUJIFILM) 16 hr later to numerically show the amount of [^14C]-triglyceride (TG amount) produced during the reaction. The inhibitory rate was calculated by the following formula:
Inhibitory rate (%)=(1−(TG amount with addition of test compound−blank TG amount)/(control TG amount−blank TG amount))×100 […]

SMILES | IC50 [nM]
O=C(NCCNC(=O)N1CCC(NS(=O)(=O)c2ccccc2)CC1)c1cn(-c2ccccc2)nc1C(F)(F)F [Example E114, N-(2-(1-Phenyl-3-(trifluoromethyl)-1H-pyrazole-4-carboxamido)ethyl)-4-(phenylsulfonamido)piperidine-1-carboxamide] | 100 to 1000
O=C(NCCNC(=O)[C@H]1CC[C@H](C(=O)c2ccccc2)CC1)c1cn(-c2ccccc2Cl)nc1C(F)(F)F [Example E164, N-(2-(trans-4-benzoylcyclohexanecarboxamido)ethyl)-1-(2-chlorophenyl)-3-(trifluoromethyl)-1H-pyrazole-4-carboxamide] | 10 to 100
O=C(NCCNC(=O)C1CCc2nc(-c3ccccc3O)sc2C1)c1cn(-c2ccccc2)nc1C(F)(F)F (stereo not shown) [Example E221, 2-(2-hydroxyphenyl)-N-(2-(1-phenyl-3-(trifluoromethyl)-1H-pyrazole-4-carboxamido)ethyl)-4,5,6,7-tetrahydrobenzo[d]thiazole-6-carboxamide] | 10 to 100
CC(C)c1nnc([C@H]2CC[C@H](C(=O)NCCNC(=O)c3cn(-c4ccccc4)nc3C(F)(F)F)CC2)o1 [Example E163, N-(2-(trans-4-(5-isopropyl-1,3,4-oxadiazol-2-yl)cyclohexanecarboxamido)ethyl)-1-phenyl-3-(trifluoromethyl)-1H-pyrazole-4-carboxamide] | 10 to 100
O=C(NCCNC(=O)[C@H]1CC[C@H](c2nnc(-c3ccccc3)[nH]2)CC1)c1cn(-c2ccccc2)nc1C(F)(F)F [Example E229, 1-Phenyl-N-(2-(trans-4-(5-phenyl-4H-1,2,4-triazol-3-yl)cyclohexanecarboxamido)ethyl)-3-(trifluoromethyl)-1H-pyrazole-4-carboxamide] | 100 to 1000
CC(C)c1nnc([C@H]2CC[C@H](C(=O)NCCNC(=O)c3cn(-c4ccccc4F)c4ccccc34)CC2)o1 [Example E265, 1-(2-fluorophenyl)-N-(2-(trans-4-(5-isopropyl-1,3,4-oxadiazol-2-yl)cyclohexanecarboxamido)ethyl)-1H-indole-3-carboxamide] | 10 to 100
CC(C)CN(C)C(=O)[C@H]1CC[C@H](C(=O)NCCNC(=O)c2cn(-c3ccccc3)nc2C(F)(F)F)CC1 [Example E126, trans-N1-isobutyl-N-1-methyl-N4-(2-(1-phenyl-3-(trifluoromethyl)-1H-pyrazole-4-carboxamido)ethyl)cyclohexane-1,4-dicarboxamide] | 10 to 100
O=C(NCCNC(=O)[C@H]1CC[C@H](C(=O)c2ccccc2)CC1)c1cn(-c2ccccn2)nc1C(F)(F)F [Example E150, N-(2-(trans-4-benzoylcyclohexanecarboxamido)ethyl)-1-(pyridin-2-yl)-3-(trifluoromethyl)-1H-pyrazole-4-carboxamide] | < 10
CC1CN(C(=O)NCCNC(=O)c2cn(-c3ccccc3)nc2C(F)(F)F)CCN1c1ccccc1 (stereo not shown) [Example E64, 3-methyl-4-phenyl-N-(2-(1-phenyl-3-(trifluoromethyl)-1H-pyrazole-4-carboxamido)ethyl)piperazine-1-carboxamide] | 10 to 100

The remaining lines, values ahead:

IC50 [nM] | SMILES
100 to 1000 | CC(C)c1nnc([C@H]2CC[C@H](C(=O)NCCNC(=O)c3cn(-c4ccccc4)nc3C(F)(F)F)N(C)C2)o1 (relative stereo) [Example E267, trans-5-(5-isopropyl-1,3,4-oxadiazol-2-yl)-1-methyl-N-(2-(1-phenyl-3-(trifluoromethyl)-1H-pyrazole-4-carboxamido)ethyl)piperidine-2-carboxamide]
10 to 100 | O=C(NCCNC(=O)N1CCC(C(=O)c2ccccc2)C1)c1cn(-c2ccccc2)nc1C(F)(F)F (stereo not shown) [Example E189, N-(2-(3-benzoylpyrrolidine-1-carboxamido)ethyl)-1-phenyl-3-(trifluoromethyl)-1H-pyrazole-4-carboxamide]
10 to 100 | O=C(NCCNC(=O)[C@H]1CC[C@H](C(=O)c2ccccc2)CC1)c1cn(-c2ccccc2)nc1C(F)(F)F [Example E65, N-(2-(trans-4-benzoylcyclohexanecarboxamido)ethyl)-1-phenyl-3-(trifluoromethyl)-1H-pyrazole-4-carboxamide]
10 to 100 | CC(C)(C)c1cnc([C@H]2CC[C@H](C(=O)NCCNC(=O)c3cn(-c4ccccc4)nc3C(F)(F)F)CC2)o1 [Example E214, N-(2-(trans-4-(5-tert-butyloxazol-2-yl)cyclohexanecarboxamido)ethyl)-1-phenyl-3-(trifluoromethyl)-1H-pyrazole-4-carboxamide]
10 to 100 | CCCC1CCN(C(=O)NCCNC(=O)c2cn(-c3ccccc3)nc2C(F)(F)F)CC1 [Example E15, N-(2-(1-phenyl-3-(trifluoromethyl)-1H-pyrazole-4-carboxamido)ethyl)-4-propylpiperidine-1-carboxamide]
10 to 100 | O=C(NCCNC(=O)N1CCC(c2nc(-c3cccnc3)no2)CC1)c1cn(-c2ccccc2)nc1C(F)(F)F [Example E101, N-(2-(1-phenyl-3-(trifluoromethyl)-1H-pyrazole-4-carboxamido)ethyl)-4-(3-(pyridin-3-yl)-1,2,4-oxadiazol-5-yl)piperidine-1-carboxamide]
100 to 1000 | O=C(NCCNC(=O)[C@H]1CC[C@H](c2nc(-c3ccccc3)c[nH]2)CC1)c1cn(-c2ccccc2)nc1C(F)(F)F [Example E172, 1-Phenyl-N-(2-(trans-4-(4-phenyl-1H-imidazol-2-yl)cyclohexanecarboxamido)ethyl)-3-(trifluoromethyl)-1H-pyrazole-4-carboxamide]
